In ChEMBL document CHEMBL1201862, “PubChem BioAssay data set” (2004):
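48-hour exposure; five concentrations; linearly interpolated endpoints. GI50: concentration for 50% inhibition of growth.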 Activity calls are given as the source filed them. No stated cut-off is given here; in the data, active = GI50 up to about 1.1 µM and inactive = higher.

How the values were obtained:
Assay in all cases: NCI tumour cell line growth inhibition, 48 h
HL-60 = system: HL-60
OVCAR-5 = system: OVCAR-5
NCI/ADR-RES = system: NCI/ADR-RES
CAKI-1 = system: CAKI-1
BT-549 = system: BT-549
HOP-92 = system: HOP-92
OVCAR-4 = system: OVCAR-4
DU-145 = system: DU-145
RPMI-8226 = system: RPMI-8226
NCI-H522 = system: NCI-H522
CCRF-CEM = system: CCRF-CEM
ACHN = system: ACHN
SK-MEL-5 = system: SK-MEL-5
HCT-116 = system: HCT-116
MCF7 = system: MCF7
LOX IMVI = system: LOX IMVI
XF498 = system: XF498
SF-539 = system: SF-539
EKVX = system: EKVX
K562 = system: K562
SN12C = system: SN12C
PC-3 = system: PC-3
HCC 2998 = system: HCC 2998
SR = system: SR
SK-OV-3 = system: SK-OV-3
SK-MEL-2 = system: SK-MEL-2
M19-MEL = system: M19-MEL
OVCAR-8 = system: OVCAR-8
SNB-78 = system: SNB-78
RXF 393 = system: RXF 393
T47D = system: T47D
MDA-MB-435 = system: MDA-MB-435
NCI-H460 = system: NCI-H460
SW-620 = system: SW-620
HOP-62 = system: HOP-62
NCI-H226 = system: NCI-H226
MDA-N = system: MDA-N
A498 = system: A498
M14 = system: M14
KM12 = system: KM12
SNB-19 = system: SNB-19
TK-10 = system: TK-10
OVCAR-3 = system: OVCAR-3
COLO 205 = system: COLO 205
SF-268 = system: SF-268
UO-31 = system: UO-31
U-251 = system: U-251
MDA-MB-231 = system: MDA-MB-231
DMS-273 = system: DMS-273
UACC-62 = system: UACC-62
UACC-257 = system: UACC-257
HOP-18 = system: HOP-18
786-0 = system: 786-0
Malme-3M = system: Malme-3M
SF-295 = system: SF-295
Hs-578T = system: Hs-578T
NCI-H23 = system: NCI-H23
SNB-75 = system: SNB-75
KM-20L2 = system: KM-20L2
DMS-114 = system: DMS-114
DLD-1 = system: DLD-1
SK-MEL-28 = system: SK-MEL-28
A549 = system: A549
IGROV-1 = system: IGROV-1
HT-29 = system: HT-29
MOLT-4 = system: MOLT-4
HCT-15 = system: HCT-15
LXFL 529 = system: LXFL 529

Measured: GI50

CC(=O)NCCCCCCNC(C)=O [HEXAMETHYLENEBISACETAMIDE]
inactive: HL-60 3.45 mM | OVCAR-5 8.24 mM | NCI/ADR-RES 7.41 mM | CAKI-1 1.79 mM | BT-549 > 10 mM | HOP-92 3.56 mM | OVCAR-4 6.55 mM | DU-145 > 8.83 mM | RPMI-8226 4.65 mM | NCI-H522 3.23 mM | CCRF-CEM 7.67 mM | ACHN > 10 mM | SK-MEL-5 6.7 mM | HCT-116 8.47 mM | MCF7 3.48 mM | LOX IMVI 4.68 mM | XF498 3.18 mM | SF-539 6.07 mM | EKVX 7.28 mM | K562 5.74 mM | SN12C 7.5 mM | PC-3 8.18 mM | HCC 2998 4.29 mM | SR > 8.53 mM | SK-OV-3 8.93 mM | SK-MEL-2 6.59 mM | M19-MEL 5.75 mM | OVCAR-8 7.62 mM | SNB-78 6.59 mM | RXF 393 9.86 mM | T47D > 5.68 mM | MDA-MB-435 4.01 mM | NCI-H460 4.81 mM | SW-620 > 3.57 mM | HOP-62 6.59 mM | NCI-H226 6.81 mM | MDA-N 7.57 mM | A498 5.79 mM | M14 6.04 mM | KM12 8.45 mM | SNB-19 8.51 mM | TK-10 4.3 mM | OVCAR-3 8.18 mM | COLO 205 5.38 mM | SF-268 8.91 mM | UO-31 5.25 mM | U-251 7.83 mM | MDA-MB-231 4.18 mM | DMS-273 3.6 mM | UACC-62 4.05 mM | UACC-257 7.08 mM | HOP-18 7.53 mM | 786-0 > 10 mM | Malme-3M 3.16 mM | SF-295 6.37 mM | Hs-578T 5.79 mM | NCI-H23 9.16 mM | SNB-75 2.84 mM | KM-20L2 5.22 mM | DMS-114 3.86 mM | DLD-1 8.24 mM | SK-MEL-28 6.98 mM | A549 2.29 mM | IGROV-1 9.18 mM | HT-29 4.84 mM | MOLT-4 7.28 mM
5.53 mM: HCT-15

O=C(NNc1ccccc1)/C(=C/c1ccc2c(c1)OCO2)NC(=O)c1ccccc1
> 0.1 mM: HCT-15
inactive: HL-60 > 0.1 mM | OVCAR-5 > 0.1 mM | CAKI-1 > 0.1 mM | HOP-92 > 0.1 mM | OVCAR-4 0.0662 mM | RPMI-8226 0.0522 mM | NCI-H522 0.0333 mM | CCRF-CEM 0.031 mM | ACHN > 0.1 mM | LXFL 529 > 0.1 mM | SK-MEL-5 > 0.1 mM | HCT-116 > 0.1 mM | LOX IMVI 0.0416 mM | XF498 > 0.1 mM | SF-539 > 0.1 mM | EKVX > 0.1 mM | K562 > 0.1 mM | SN12C > 0.1 mM | HCC 2998 > 0.1 mM | SR 0.0322 mM | SK-OV-3 > 0.1 mM | SK-MEL-2 > 0.1 mM | OVCAR-8 > 0.1 mM | SNB-78 > 0.1 mM | RXF 393 > 0.1 mM | NCI-H460 > 0.1 mM | HOP-62 > 0.1 mM | NCI-H226 0.0962 mM | A498 > 0.1 mM | M14 > 0.1 mM | KM12 > 0.1 mM | SNB-19 > 0.1 mM | TK-10 > 0.1 mM | OVCAR-3 0.069 mM | COLO 205 0.0401 mM | SF-268 > 0.1 mM | UO-31 > 0.1 mM | U-251 0.0984 mM | DMS-273 > 0.1 mM | UACC-62 > 0.1 mM | UACC-257 > 0.1 mM | HOP-18 > 0.1 mM | 786-0 > 0.1 mM | Malme-3M > 0.1 mM | SF-295 > 0.1 mM | NCI-H23 > 0.1 mM | SNB-75 > 0.1 mM | KM-20L2 > 0.1 mM | DLD-1 > 0.1 mM | SK-MEL-28 > 0.1 mM | A549 > 0.1 mM | IGROV-1 > 0.1 mM | HT-29 > 0.1 mM | MOLT-4 0.055 mM
